Test [1] relates to CFA induced inflammation of the rat hindpaw (mechanical allodynia). In words: Pressure sensitivity with von Frey hairs (paw pressure withdrawal threshold) in rats with CFA hindpaw inflammation. Format: in vivo. The following applies: for Paw pressure withdrawal thresholds (PPWT): CFA+saline 5-12 g, control 50-70 g. As to the method: (§1) For the experiments described in FIGS. 1-16, adult Sprague Dawley male rats, 200-300 g, were used. One set of normal rats was used to evaluate the effects of fixation on glutaminase immunohistochemical staining and for determining antisera dilutions. For all other rats, at day 0, a limited arthritis was induced in the right hindpaw by the intraplantar subcutaneous injection of 75-150 μl of complete Freund's adjuvant (CFA; Mycobacterium butyricum; Sigma) emulsified in saline (1:1). Controls were naive rats that received no injection or rats that received intraplantar injection of saline (75 μl). For peripheral glutaminase inhibition studies, the inflamed hindpaws were injected with glutaminase inhibitors (25 μl) at day 3 of inflammation. Some rats with inflammation received saline injections (25 μl) into the inflamed hindpaw at day 3. […] Efforts were made to minimize the number of animals used for this study.
Two to three days prior to and for the days following CFA injection, rats were tested for pressure sensitivity with von Frey hairs (Semmes-Weinstein monofilaments; Stoelting, Inc.). […] Monofilaments calibrated for specific forces were inserted through the holes underneath the box to probe the plantar surface of the hindpaw, 5 times in 3-4 sec intervals in different places on the plantar surface. Filaments with light force were used first, followed by filaments of increasing force. A filament was slowly applied perpendicularly to the plantar surface until bending of the filament occurred. […] The threshold force was defined as the filament (force) that caused the foot retraction without bending the monofilament three out of five times. Using a conversion table for the filaments, thresholds were reported as gram force.

Test [2] deals with CFA induced inflammation of the rat hindpaw (thermal hyperalgesia). Description: Thermal latencies (Hargreaves' model) in rats with CFA hindpaw inflammation. Format: in vivo. As for the experimental part: as §1
Thermal latencies for the footpad plantar surface were determined with the Hargreaves' model (Ugo Basile, Italy). Rats were placed on an elevated glass plate (3 mm) in clear plastic boxes with air holes in the lids and allowed to acclimate for 10 minutes. Radiant heat was applied to the plantar surface of the hindpaw and the withdrawal latency recorded. A second test was followed after 5-10 minutes. All behavioral testing occurred at 21-22° C. with indirect lighting in the testing room. Differences between groups for pressure thresholds and thermal latencies were determined with a Student's t test (p<0.05 for significance) using InStat biological statistics program (GraphPad Software, Inc., San Diego).

The subject of test [3] is CFA induced inflammation of the rat hindpaw (mechanical allodynia). Description: Pressure sensitivity with von Frey hairs (paw pressure withdrawal threshold) in rats with CFA hindpaw inflammation. Format: in vivo. To be noted: for pressure responses after intrathecal inhibitor: injected intrathecally prior to initiation of CFA inflammation, tested 4 days, before ~70 gms, CFA ~10 gms.

Test [4] relates to hindpaw of normal rats. In words: DON controls: pressure and thermal sensitivities after intraplantar injection in normal rats. Format: in vivo, rat. The following applies: DON 10 μMole/25 μl injected on day 3, no inflammation. As to the method: FIG. 10 illustrates DON controls.
Two to three days prior to and for the days following CFA injection, rats were tested for pressure sensitivity with von Frey hairs (Semmes-Weinstein monofilaments; Stoelting, Inc.). Rats were allowed to acclimate for five to ten minutes in a plastic box (25×25×25 cm) with 6 mm holes spaced every 6 mm [Pitcher et al, 1999a,b]. Monofilaments calibrated for specific forces were inserted through the holes underneath the box to probe the plantar surface of the hindpaw, 5 times in 3-4 sec intervals in different places on the plantar surface. Filaments with light force were used first, followed by filaments of increasing force. A filament was slowly applied perpendicularly to the plantar surface until bending of the filament occurred. […] The threshold force was defined as the filament (force) that caused the foot retraction without bending the monofilament three out of five times. […]
Thermal latencies for the footpad plantar surface were determined with the Hargreaves' model (Ugo Basile, Italy). […] Radiant heat was applied to the plantar surface of the hindpaw and the withdrawal latency recorded. […] Differences between groups for pressure thresholds and thermal latencies were determined with a Student's t test (p<0.05 for significance) using InStat biological statistics program (GraphPad Software, Inc., San Diego).

For test [5], the system named is GLU-IR fibers in the paw skin. In words: Glutamate immunohistochemistry of hindpaw skin after CFA inflammation. The following applies: CFA + inhibitor, skin after 7 days; control very little, CFA+saline many intense fibers. The test is classed as in vivo, rat. As to the method: (§2) The skin from the hindpaws were also processed for GLU and GT immunohistochemistry after 7 days (FIG. 12). Control rats had very little GLU or GT-immunoreactive (IR) fibers in the paw skin. Skin from CFA+saline rats contained many intense GLU-IR and GT-IR fibers.
(§3) For immunohistochemical localization of GT, rats at 3, 7, and 10 days (n=6 CFA/time pt; n=4 control/time pt; n=3 additional controls) were anesthetized with sodium pentobarbital (90 mg/kg) and transcardially perfused with fixative: 0.2% paraformaldehyde (PFA), […] (PA) in 0.1M phosphate buffer, pH 7.4 [Miller et al, 1993, 2002]. Right and left L4DRG's and hindpaws were removed and placed overnight in fixative at 4° C.; the PFA concentration was increased to 2% for post-fixation [Miller et al, 1993, 2002]. Additional control rats (n=3) were perfused transcardially with 4% PFA in 0.1M Sorenson's phosphate buffer, pH 7.4. DRG's were removed and placed in fixative overnight at 4° C. All tissues were transferred to 20% sucrose in 0.1M Sorenson's phosphate buffer, pH 7.4 for 24-96 hr. at 4° C. The tissue was frozen, sectioned at 20 μm in a cryostat, thaw mounted onto gelatin coated slides, and dried for 1 hr. at 37° C. […]

Test [6] concerns GT-IR fibers in the paw skin. In words: Glutaminase immunohistochemistry of hindpaw skin after CFA inflammation. The following applies: CFA + inhibitor, skin after 7 days; control very little, CFA+saline many intense fibers. The test is classed as in vivo, rat. As to the method:
as §2, §3

Setting [7] is: BB 200 μM/25 μl at day three following CFA inflammation.
Where [8] appears, read: NEM 10 mM/25 μl at day three following CFA inflammation.
Where [9] appears, read: P-CoA 2 mM/25 μl at day three following CFA inflammation.

“Also recorded” adds a separate entry of the source.

Turning to `Cc1c(C2(c3cc(C(C)C)c(O)c(Br)c3C)OS(=O)(=O)c3ccccc32)cc(C(C)C)c(O)c1Br` [BB, bromothymol blue], the “long term pain relief to pressure (mechanical stimulation)” value (from here on “long term pain relief to pressure”) in test [1] (setting [7]) was “pain relief on Day 5”. For the same compound, the “long term pain relief to heat (thermal stimulation)” value (from here on “long term pain relief to heat”) in test [2] (setting [7]) was “pain relief from Days 5-7 and at near normal levels from Days 6 and 7”.

With `O=c1oc2ccccc2c(O)c1Cc1c(O)c2ccccc2oc1=O` [DC, dicoumarol], the “Thermal latencies (hyperalgesia) as inflammation progressed” value in test [2] (dicoumarol 15 μl @ 500 μM i.t. on days 0, 1 and 2, CFA at Day 0) is recorded as “less hyperalgesic”. For the same compound, the “pressure responses (allodynia) as inflammation progressed” value in test [3] (dicoumarol 15 μl @ 500 μM i.t. on days 0, 1 and 2, CFA at Day 0, data not shown) was “less hyperalgesic and allodynic”.

Consider `[N-]=[N+]=CC(=O)CC[C@H](N)C(=O)O` [DON, 6-diazo-5-oxo-L-norleucine], for which the “Paw pressure withdrawal thresholds (PPWT)” value in test [1] (CFA+DON rats, 25 μl into right paw after 2-3 days, from 6 hours through the duration of the experiment) was in the range of 20 to 30 g. The “dose response for pain relief from pressure, area under the curve Day 3 to Day 5” value in test [1] (DON 0.1-10 μMole/25 μl) is given as “No differences in the amount of pain relief”. For the same compound, the “long term pain relief to pressure” value in test [1] (DON 0.1-10 μMole/25 μl, three doses, at day three following CFA inflammation) is listed as “pain relief occurred for several days”. Besides, the “dose response for pain relief from thermal stimulation, area under the curve Day 3 to Day 5” value in test [2] (DON 0.1-10 μMole/25 μl) is recorded as “most efficacious at the higher doses”. The “long term pain relief to heat” value in test [2] (DON 0.1-10 μMole/25 μl, all three doses, at day 3 after CFA inflammation) is listed as “pain relief occurred for several days”. Besides, the “pain relief to heat (thermal responses)” value in test [2] (DON 0.1 and 1 μMole at day 3 after CFA inflammation) is “pain relief to near normal levels for at least one day”; in test [2] (DON 10 μMole at day 3 after CFA inflammation), “bringing thermal responses back to normal for two days”. In addition, the “pressure sensitivity in normal rats” value in test [4] was “same as saline controls”. Besides, in test [4], the “thermal sensitivity in normal rats” value is “same as saline controls”. For the same compound, in test [5], the “GLU-IR fibers in hindpaw skin” value was “reduced to near normal levels; also recorded: moderate numbers”. For the same compound, the “GT-IR fibers in hindpaw skin” value in test [6] is on record as “moderate numbers”. The “pressure responses after intrathecal inhibitor” value in test [3] was “near normal pressure responses for several days”.

Consider `O=C(O)CF` [FA, fluoroacetate], for which the “pressure responses after intrathecal inhibitor” value in test [3] is recorded as “near normal pressure responses for several days”.

On to `CS(=N)(=O)CC[C@H](N)C(=O)O` (stereo partly drawn) [MSO, methionine sulfoximine], for which the pressure responses in test [1] (MSO injected into inflamed hindpaw at Day 3, one-time, over several days, before inflammation ~70 gms, after ~10 gms) is ~50 gms. The Thermal responses result in test [2] (MSO injected into inflamed hindpaw at Day 3, one-time, before inflammation ~9 sec, after ~3 sec) is “near normal levels by day 6 through day 9”. The “pressure responses after intrathecal inhibitor” value in test [3] was “near normal pressure responses for several days”.

For the compound `CCN1C(=O)C=CC1=O` [NEM, N-ethylmaleimide], the “Paw pressure withdrawal thresholds (PPWT)” value in test [1] (CFA+NEM rats, after 48 hours) fell in the range of 20 to 25 g. Further, the “long term pain relief to pressure” value in test [1] (setting [8]) is “pain relief occurred for several days”. Also, in test [2] (setting [8]), the “long term pain relief to heat” value was “pain relief occurred to near normal levels at days four and six”. The “GLU-IR fibers in hindpaw skin” value in test [5] is on record as “reduced to near normal levels; also recorded: moderate numbers”. For the same compound, the “GT-IR fibers in hindpaw skin” value in test [6] was “moderate numbers”.

On to `CCCCCCCCCCCCCCCC(=O)SCCNC(=O)CCNC(=O)[C@H](O)C(C)(C)COP(=O)(O)OP(=O)(O)OC[C@H]1O[C@@H](n2cnc3c(N)ncnc32)[C@H](O)[C@@H]1OP(=O)(O)O` [P-CoA, Palmitoyl Coenzyme A], for which, in test [1] (setting [9]), the “long term pain relief to pressure” value is “pain relief from Days 4-7”. The “long term pain relief to heat” value in test [2] (setting [9]) is “pain relief to near normal levels from Days 4-7”.

The values above are taken from US7504231B2, “Method of alleviating chronic pain via peripheral inhibition of neurotransmitter synthesis” (The Board of Regents of the University of Oklahoma, priority 2001, dated 2009).
